The values below come from ChEMBL document CHEMBL3507680, “University of Dundee, Gates Library screen for HepG2 cell viability”.

Each structure is given as a SMILES string.

This series in a line: Human HepG2 cell viability assay in 384 well format. In kind it is toxicity, cell-based. On the set-up: dose 125 nL, time 70.5 hour; cytotoxicity at 70.5 h: concentration not given beside the values. Conditions: HepG2 cells, read-out: Inhibition.
As to `CN1CCCN(C(=O)c2csc(-c3ccc(C(F)(F)F)cc3)n2)CC1`, the cytotoxicity at 70.5 h is -7.23%.
Turning to `CCn1cc2c(n1)CN(Cc1ccc(F)cc1)CC2COCC1CC1` (centres undefined), the cytotoxicity at 70.5 h is -1.9%.
For the compound `NS(=O)(=O)N1CCC(C(=O)Nc2cccc(OC(F)F)c2)CC1`, the cytotoxicity at 70.5 h came to 1.39%.
The value for `O=C1CC(c2ccncc2)C2(CCN(Cc3ccc(F)cc3)CC2)N1` (centres undefined) was -9.81%; that for `COCCn1c2c(ccc1=O)CCN(C(=O)Cc1ccsc1)CC2` was 2.04%; that for `O=C(Nc1ccc(F)cc1)C1CNCCN1C(=O)CCc1cccnc1` (centres undefined) was -5.37%.
To `O=C(CCn1cnc2cc(F)c(F)cc21)N1CCN2CCCCC2C1` (centres undefined) belongs -1.04%.
To `Cc1c(C2CC2)n[nH]c1NC(=O)C1CCCN(C(=O)NCC(C)C)C1` (centres undefined) belongs -4.52%; to `CC(C)n1cnnc1CNC(=O)CCCOc1ccccc1Cl`, -6.43%.
For the compound `Cc1nn(C(C)C)c(C)c1CN1CCN(C2CCCCC2)C(=O)C1`, the cytotoxicity at 70.5 h was -3.48%.
In the case of `Cc1ccc2[nH]c(C3CCN(CC(N)=O)CC3)nc2c1`, the cytotoxicity at 70.5 h is 9.74%.
Take `CCN1C(=O)[C@H]2CN(CC(C)C)C[C@H]2C12CCN(S(C)(=O)=O)CC2`: the cytotoxicity at 70.5 h is -6.33%.
In the case of `c1cncc(OCc2n[nH]c3c2CN(Cc2cccs2)C3)c1`, the cytotoxicity at 70.5 h was -6.87%.
To `COc1ccc(F)cc1C(=O)N1C[C@H]2CC[C@@H]1CN(c1ncccn1)C2` belongs -9.41%; to `COc1ccccc1OC1CCN(C(=O)C2CCCN(C)C2)CC1` (centres undefined), -8.14%.
Consider `Cc1nc(O)cc(C2CCN(C(=O)CN(C)c3ccccc3)CC2)n1`, for which the cytotoxicity at 70.5 h is -3.24%.
For `CC(C)Cc1noc(CN2CCN(CCO)CC2)n1`, the cytotoxicity at 70.5 h was -4.77%.
With `Cc1nccc(N[C@H]2CN(CC(C)(C)N3CCOCC3)C[C@@H]2C2CC2)n1`, the cytotoxicity at 70.5 h was 20.2%.
As to `CCOc1ccccc1C(C(=O)O)N(C)Cc1cc(C)[nH]n1` (centres undefined), the cytotoxicity at 70.5 h is -5.35%.
Turning to `CCn1cc(CCC(=O)NCc2csc(C3CC3)n2)c(C)n1`, the cytotoxicity at 70.5 h was -11.7%.
As to `O=C(NCCOc1ncc(Cl)cc1Cl)c1cccnc1`, the cytotoxicity at 70.5 h is 8.03%.
Consider `CCC(=O)N1CCN(Cc2cnc(C)nc2)[C@H]2CS(=O)(=O)C[C@H]21`, for which the cytotoxicity at 70.5 h turned out to be 12.9%.
For `C[C@@H]1CN(C2(C(=O)N3CCCCCC3)Cc3ccccc3C2)C[C@H](C)O1`, the cytotoxicity at 70.5 h was -7.47%.
For the compound `CC(=O)Cc1c(C)nn(-c2cncc(C(N)=O)c2)c1C`, the cytotoxicity at 70.5 h is -9.56%.
Regarding `CCc1cc(NCCCc2nc(C)no2)nc(-c2ccncc2)n1`, the cytotoxicity at 70.5 h is -5.75%.
`CCc1nc(C2CCCN(C(=O)c3c(C)noc3C)C2)no1` (centres undefined): the cytotoxicity at 70.5 h was 20.6%.
Regarding `c1ccc(OCCNCc2cccs2)nc1`, the cytotoxicity at 70.5 h is 7.79%.
Turning to `Cc1cc(C(=O)N2C[C@@H]3COC[C@]3(c3nnc(C)o3)C2)on1`, the cytotoxicity at 70.5 h was -11.2%.
As for `Cc1csc(CN2CC[C@H]3C[C@@H](c4nc(C)no4)O[C@@H]3C2)n1`, the cytotoxicity at 70.5 h is -7.69%.
With `COCCS(=O)(=O)Cc1csc(NC(C)=O)n1`, the cytotoxicity at 70.5 h was -16%.
To `O=C(NCC1CC1)C1CSCN1S(=O)(=O)c1ccccc1` (centres undefined) belongs -15.1%.
For the compound `O=C(NCc1ccco1)N1CCC(n2cc(-c3ccccn3)nn2)CC1`, the cytotoxicity at 70.5 h stood at 0.624%.
`CCN(CC)Cc1ccc(C(=O)N2CCCC2Cn2cccn2)o1` (centres undefined): the cytotoxicity at 70.5 h is -1.33%.
Turning to `Cc1nn(C)c(C)c1C1CCCN1Cc1nc(-c2ccco2)no1` (centres undefined), the cytotoxicity at 70.5 h is -19.8%.
Take `Cc1ccc(Cl)c2c1C1(NC(=O)c3cccnc3N1)C(=O)N2` (centres undefined): the cytotoxicity at 70.5 h was -5.73%.
Regarding `Fc1cccc(CN2CCC3(CCN3c3ncccn3)C2)c1` (centres undefined), the cytotoxicity at 70.5 h is -8.53%.
Take `Cc1ccc(CN2CC[C@H]3[C@@H]2CCC(=O)N3CCN2CCCC2)s1`: the cytotoxicity at 70.5 h came to 11.4%.
With `Cn1c2ncccc2c(=O)n1CC(=O)NCCc1c(F)cccc1F`, the cytotoxicity at 70.5 h was -7.19%.
To `c1ncc2c(n1)CN(Cc1nc(-c3ccc4c(c3)OCO4)no1)CC2` belongs -4.3%; to `O=C(NCC1(c2ccc(F)cc2)CCC1)N1CCC2(C1)OCCO2`, -8.6%; to `CCc1c(O)nc(SCC(=O)c2ccccc2)n(-c2ccccc2)c1=O`, -2.09%.
`Cc1nc(Nc2ccccn2)cc(C2CCCN2C2CCOCC2)n1` (centres undefined): the cytotoxicity at 70.5 h was -10.7%.
Consider `CC(C)(C(=O)N1CCCC(OCc2cccnc2)C1)n1cccc1` (centres undefined), for which the cytotoxicity at 70.5 h was -4.94%.
The value for `COCCNc1nc2c(c(NCc3ccncc3)n1)CCNCC2` was -7.33%; that for `CCCn1nccc1C(=O)N1CCCC(C(=O)CCc2ccccc2)C1` (centres undefined) was -2.61%; that for `Cc1oc(C(C)C)cc1C(=O)N1C[C@H]2CC[C@@H]1CN(S(=O)(=O)N(C)C)C2` was -7.52%.
`Cn1cc(CN2CCCC23CCN(S(C)(=O)=O)CC3)cn1`: the cytotoxicity at 70.5 h is -2.11%.
Consider `CC(=O)N1CCN(C(=O)NCc2ccccc2Cn2ccnc2)CC1`, for which the cytotoxicity at 70.5 h is -14.1%.
Consider `Cc1ccccc1C(CC(=O)NCC(N)=O)c1ccccc1` (centres undefined), for which the cytotoxicity at 70.5 h is -5.12%.
The value for `O=C(Cn1cnc2sccc2c1=O)NCCc1nnc2ccccn12` was -11.3%; that for `Cc1nc(CN(C)C2CCN(Cc3cnc(C)s3)C2)no1` (centres undefined) was -3.46%.
As for `CS(=O)(=O)N[C@@H]1COC[C@@H]2CN(Cc3ccoc3)C[C@@H]21`, the cytotoxicity at 70.5 h is -11.6%.
Turning to `Cc1noc(-c2cccnc2N(C)Cc2ccc([S+](C)[O-])cc2)n1` (centres undefined), the cytotoxicity at 70.5 h was -3.37%.
For the compound `NC(=O)c1ccc(C2CCCN2C(=O)Cn2nc3ccccc3n2)s1` (centres undefined), the cytotoxicity at 70.5 h was 8.36%.
For `Cc1nnc(NC(=O)CN2CCc3c(nc(C(C)C)n3C)C2)s1`, the cytotoxicity at 70.5 h is -8.19%.
On to `CC(C)(O)CN1CCN(C(=O)COCC2CC2)CC1`, for which the cytotoxicity at 70.5 h was determined as 2.07%.
For `Cc1nnc(NCC2(c3ccccc3)CCC2)c(C#N)c1C`, the cytotoxicity at 70.5 h stood at 2.86%.
With `COCCn1cc(NCc2c[nH]nc2-c2ccc(OC)cc2)cn1`, the cytotoxicity at 70.5 h is -5.02%.
To `O=C(NCCC1=CCCCC1)Nc1cc(C(F)(F)F)c[nH]c1=O` belongs 0.799%.
In the case of `Cc1cc2nc(SCC(=O)N3CCCC3)n(Cc3ccco3)c(O)c-2n1`, the cytotoxicity at 70.5 h was -8.29%.
Regarding `Cc1cn(-c2ccccc2)nc1NS(=O)(=O)c1ccc(C(=O)O)cc1`, the cytotoxicity at 70.5 h worked out at 10.8%.
As for `COc1ccc(-c2nnc(SC(C)C(=O)NC3CCCC3)[nH]2)c(OC)c1` (centres undefined), the cytotoxicity at 70.5 h worked out at 42.2%.
In the case of `Fc1ccc(CC2CCN(Cc3cscn3)CC2)cc1`, the cytotoxicity at 70.5 h was -14.2%.
To `O=C1CCC(=O)c2oc3ccc(Br)cc3c2N1` belongs -12.5%.
To `O=C(c1cc(COc2ccc3c(c2)OCO3)[nH]n1)N1CCCC(O)C1` (centres undefined) belongs 0.249%; to `Cc1nc(CN(C)C2CCN(CCc3ccccn3)C2)no1` (centres undefined), 24.5%; to `c1ccc(OCCN2CCC(c3cnccn3)CC2)cc1`, 3.59%.
On to `Cc1nc(C2CCN(CC(=O)NC3CC3)CC2)cc(N2CCOCC2)n1`, for which the cytotoxicity at 70.5 h is -0.642%.
Turning to `CNS(=O)(=O)CCN1CC(c2ccccc2)(c2ccccc2)CCC1=O`, the cytotoxicity at 70.5 h was 5.38%.
